Measurements taken from patent US5980914A (priority 1997, dated 1999).
Entries after “also recorded” stand apart in the source; their conditions may differ.

Tests used:
[1] = Solubility in water / aqueous solutions; type: physicochemical; conditions: water / aqueous solutions for NMR testing
Procedure: (§1) The mixture was analyzed by ^1 H NMR.
(§2) Three different solutions were prepared and their ^1 H NMR spectra were recorded in a DRX 400 MHz spectrophotometer at 20° C. Solution a) contained free vitamin B12 (hydroxycobalamin) in a concentration of 2.6 mM.

[2] = in vivo; cited from earlier work
[3] = mass spectrophotometry; cited from earlier work
Heliocobacter pylori = conditions: in vivo; cited from earlier work
[4] = mass spectrophotometry; cited from earlier work; remark: listed apart in the source
[5] = mass spectrophotometry; cited from earlier work; remark: listed apart in the source
[6] = mass spectrophotometry; cited from earlier work; remark: listed apart in the source
[7] = monkeys, microautoradiographic techniques; terminal axodendritic boutons of the mossy fibres; cited from earlier work
[8] = mass spectrophotometry; cited from earlier work; remark: listed apart in the source
[9] = system: vitamin B12 ([^57 Co]-cyanocobalamine) metabolism; assay: Influence of clioquinol on vitamin B12 in vivo: [57Co]-cyanocobalamine radioactivity in dissected tissues; design: species or system mice
Procedure: After three days, all of the mice were injected with [^57 Co]-cyanocobalamine. After two days, the animals were sacrificed, and the brain, liver and kidney were dissected and counted in a gamma-counter as thousand cpm/g tissue (wet weight)±SEM. The radioactivities in each of the groups are stated in Table 1 below: […]

neurotoxic injury = conditions: in vivo; cited from earlier work
[10] = unconjugated clioquinol, injected intravenously; crosses the blood-brain-barrier; cited from earlier work
[11] = cited from earlier work
[12] = 1H NMR interaction of vitamin B12 with clioquinol glucuronide; type: binding
Procedure: FIG. 1 depicts the NMR spectra of three solutions. Solution a contained vitamin B12 (hydroxycobalamin), at a concentration of 2.6 mM.
as §1, §2

| Structure (SMILES) | solubility in water [1] | excretion [2] | coordination number for Cu(II) [3] | effect in the treatment of Heliocobacter pylori (Heliocobacter pylori) | coordination number for Co(II) [4] | coordination number for Zn(II) [5] | coordination number for Ni(II) [6] | zinc chelates in the hippocampus [7] | coordination number for Fe(III) [8] | radioactivity, Brain ([9]; brain, clioquinol 50 mg/kg/day, [57Co]-cyanocobalamine after three days, sacrificed after two days, ±SEM, control 9.4 ± 0.9) | amount of vitamin B12 trapped in the kidneys, in words ([9]; kidney, versus control) | radioactivity, Kidney ([9]; kidney, clioquinol 50 mg/kg/day, [57Co]-cyanocobalamine after three days, sacrificed after two days, ±SEM, control 895 ± 207) | radioactivity, Liver ([9]; liver, clioquinol 50 mg/kg/day, [57Co]-cyanocobalamine after three days, sacrificed after two days, ±SEM, control 97 ± 8) | effect in the treatment of neurotoxic injury (neurotoxic injury) | penetration into the nervous system [10] | concentration in areas of the brain such as the hippocampus, in words [11] | shift of resonances in the mixture ([12]; aromatic region, benzimidazole moiety (vitamin B12), quinoline moiety (clioquinol glucuronide)) | interaction between clioquinol glucuronide and vitamin B12 ([12]; buffered water pH 6.5, 20° C, 2.6 mM vitamin B12 + 10 mM clioquinol glucuronide) |
| --- | --- | --- | --- | --- | --- | --- | --- | --- | --- | --- | --- | --- | --- | --- | --- | --- | --- | --- |
| Oc1c(I)cc(Cl)c2cccnc12 [Clioquinol, 5-chloro-7-iodo-8 hydroxyquinoline] | cannot be dissolved in aqueous solutions | excreted through the kidneys as glucuronide or sulfate derivatives; also recorded: excreted through the kidneys as glucuronide derivatives | 2 | effective | 2 | 2 | 2 | form zinc chelates in the hippocampus | 3 | 8.4 ± 1.5 thousand cpm/g tissue (wet wei | decreased in the kidney; also recorded: A reduction in the amount of vitamin B12 trapped in the kidneys | 252 ± 61 thousand cpm/g tissue (wet wei | 85 ± 21 thousand cpm/g tissue (wet wei | effective | extremely rapid penetration into the nervous system | high | – | – |
| COC(=O)[C@H]1OC(Oc2c(I)cc(Cl)c3cccnc23)[C@H](OC(C)=O)[C@@H](OC(C)=O)[C@@H]1OC(C)=O (stereo partly shown) [clioquinol glucuronide, methyl(5-chloro-7-iodo-quinolyl-2',3',4'-tri-O-acetyl-glycopyranosid)uronate] | soluble in water | – | – | – | – | – | – | – | – | – | – | – | – | – | – | – | the same is observed for two resonances of the clioquinol glucuronide | hydrophobic interaction between clioquinol glucuronide and vitamin B12; also recorded: vitamin B12 binds to clioquinol glucuronide |
